Like-named read-outs stand apart in the source and are kept apart here.
Biological target: NMDA receptor (NR1 + NR2 subunits) (Rattus norvegicus, UniProt P35439+Q00960)
Experiment: Two electrode voltage clamp recording from Xenopus laevis oocytes (pH dependence of NMDA antagonism)
Assay type: cell-based
Method: cRNA was synthesized from linearized template cDNA for rat glutamate receptor subunits according to manufacturer specifications (Ambion). Quality of synthesized cRNA was assessed by gel electrophoresis, and quantity was estimated by spectroscopy and gel electrophoresis. Stage V and VI oocytes were surgically removed from the ovaries of large, well-fed and healthy Xenopus laevis anesthetized with 3-amino-benzoic acid ethyl ester (3 gm/l) as previously described. Clusters of isolated oocytes were incubated with 292 U/ml Worthington (Freehold, N.J.) type IV collagenase or 1.3 mg/ml collagenase (Life Technologies, Gaithersburg, Md.; 17018-029) for 2 hr in Ca^2+-free solution comprised of (in mM) 115 NaCl, 2.5 KCl, and 10 HEPES, pH 7.5, with slow agitation to remove the follicular cell layer. Oocytes were then washed extensively in the same solution supplemented with 1.8 mM CaCl2 and maintained in Barth's solution comprised of (in mM): 88 NaCl, 1 KCl, 2.4 NaHCO3, 10 HEPES, 0.82 MgSO4, 0.33 Ca(NO3)2, and 0.91 CaCl2 and supplemented with 100 μg/ml gentamycin, 10 μg/ml streptomycin, and 10 μg/ml penicillin. Oocytes were manually defolliculated and injected within 24 hrs of isolation with 3-5 ng of NR1 subunit cRNA and 7-10 ng of NR2 cRNA subunit in a 50 nl volume, or 5-10 ng of AMPA or kainate receptor cRNAs in a 50 nl volume, and incubated in Barth's solution at 18° C. for 1-7 d. Glass injection pipettes had tip sizes ranging from 10-20 microns, and were backfilled with mineral oil.
Two electrode voltage-clamp recordings were made 2-7 days post-injection as previously described. Oocytes were placed in a dual-track plexiglass recording chamber with a single perfusion line that splits in a Y-configuration to perfuse two oocytes. Dual recordings were made at room temperature (23° C.) using two Warner OC725B two-electrode voltage clamp amplifiers, arranged as recommended by the manufacturer. Glass microelectrodes (1-10 Megaohms) were filled with 300 mM KCl (voltage electrode) or 3 M KCl (current electrode). The bath clamps communicated across silver chloride wires placed into each side of the recording chamber, both of which were assumed to be at a reference potential of 0 mV. Oocytes were perfused with a solution comprised of (in mM) 90 NaCl, 1 KCl, 10 HEPES, and 0.5 BaCl2; pH was adjusted by addition of 1-3 M NaOH of HCl. Oocytes were recorded under voltage clamp at −40 mV. Final concentrations for control application of glutamate (50 μM) plus glycine (30 μM) were achieved by adding appropriate volumes from 100 and 30 mM stock solutions, respectively. In addition, 10 μM final EDTA was obtained by adding a 1:1000 dilution of 10 mM EDTA, in order to chelate contaminant divalent ions such as Zn^2+. Concentration-response curves for experimental compounds were obtained by applying in successive fashion maximal glutamate/glycine, followed by glutamate/glycine plus variable concentrations of experimental compounds. Dose response curves consisting of 4 to 8 concentrations were obtained in this manner. The baseline leak current at −40 mV was measured before and after recording, and the full recording linearly corrected for any change in leak current. Oocytes with glutamate-evoked responses smaller than 50 nA were not included in the analysis. The level of inhibition by applied experimental compounds was expressed as a percent of the initial glutamate response, and averaged together across oocytes from a single frog. Each experiment consisted of recordings from 3 to 10 oocytes obtained from a single frog. Results from 3-6 experiments were pooled, and the average percent responses at antagonist concentrations were fitted by the equation,
Percent Response=(100−minimum)/(1+([conc]/IC50)^nH)+minimum […]

[1] = pH 6.9, Table 17, read-out: IC50 at pH 6.9
[2] = pH 7.6, Table 17, read-out: IC50 at pH 7.6
[3] = pH 6.9, Table 18, read-out: IC50 at pH 6.9
[4] = pH 7.6, Table 18, read-out: IC50 at pH 7.6
[5] = pH 6.9, Table 19, read-out: IC50 at pH 6.9
[6] = pH 7.6, Table 19, read-out: IC50 at pH 7.6

Sequence of NMDA receptor (NR1 + NR2 subunits) (Q00960 27-1482, other chains not shown): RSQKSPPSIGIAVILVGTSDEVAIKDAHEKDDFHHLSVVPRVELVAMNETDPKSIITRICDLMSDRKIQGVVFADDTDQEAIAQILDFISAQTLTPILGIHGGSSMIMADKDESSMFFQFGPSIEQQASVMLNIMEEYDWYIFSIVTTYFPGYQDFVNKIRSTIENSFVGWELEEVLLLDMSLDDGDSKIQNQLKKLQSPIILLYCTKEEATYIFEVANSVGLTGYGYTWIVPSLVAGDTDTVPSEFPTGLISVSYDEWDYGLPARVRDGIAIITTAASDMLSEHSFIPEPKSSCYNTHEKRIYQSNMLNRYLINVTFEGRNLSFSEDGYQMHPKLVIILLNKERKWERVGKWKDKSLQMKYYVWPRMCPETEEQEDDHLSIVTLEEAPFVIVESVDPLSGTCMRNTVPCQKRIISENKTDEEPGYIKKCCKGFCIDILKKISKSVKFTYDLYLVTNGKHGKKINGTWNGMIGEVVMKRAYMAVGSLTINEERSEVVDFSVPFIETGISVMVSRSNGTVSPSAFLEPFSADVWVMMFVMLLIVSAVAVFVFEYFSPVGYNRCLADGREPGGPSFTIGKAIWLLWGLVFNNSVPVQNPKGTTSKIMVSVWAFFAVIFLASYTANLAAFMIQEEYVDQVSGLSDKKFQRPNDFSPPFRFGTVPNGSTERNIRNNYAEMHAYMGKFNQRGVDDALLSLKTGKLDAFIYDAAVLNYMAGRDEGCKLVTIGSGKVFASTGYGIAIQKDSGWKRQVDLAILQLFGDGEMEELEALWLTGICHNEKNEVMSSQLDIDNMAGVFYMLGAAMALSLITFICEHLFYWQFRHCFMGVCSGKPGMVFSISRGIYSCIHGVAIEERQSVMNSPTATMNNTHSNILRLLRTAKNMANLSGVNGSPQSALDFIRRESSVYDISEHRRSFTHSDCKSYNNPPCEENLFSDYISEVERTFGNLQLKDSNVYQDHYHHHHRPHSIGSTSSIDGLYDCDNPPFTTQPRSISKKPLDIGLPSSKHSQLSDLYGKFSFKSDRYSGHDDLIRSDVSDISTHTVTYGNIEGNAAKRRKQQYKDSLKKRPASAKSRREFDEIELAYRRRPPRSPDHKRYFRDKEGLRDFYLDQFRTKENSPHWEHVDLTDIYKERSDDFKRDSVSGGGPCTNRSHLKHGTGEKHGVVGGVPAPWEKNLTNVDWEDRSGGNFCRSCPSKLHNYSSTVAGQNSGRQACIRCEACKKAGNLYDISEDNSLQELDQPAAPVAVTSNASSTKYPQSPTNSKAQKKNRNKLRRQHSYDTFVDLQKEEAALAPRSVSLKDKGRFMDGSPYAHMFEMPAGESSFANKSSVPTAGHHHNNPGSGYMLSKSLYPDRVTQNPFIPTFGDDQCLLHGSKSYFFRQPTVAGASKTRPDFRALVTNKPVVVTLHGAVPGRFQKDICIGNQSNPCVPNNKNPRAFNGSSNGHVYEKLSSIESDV

Row | IC50 [1] [nM] | IC50 [2] [nM] | IC50 [5] [nM] | IC50 [6] [nM] | Structure (SMILES) | also measured
1 | 31 | 557 | – | – | CS(=O)(=O)Nc1ccc(OCC(O)CN2CCN(c3ccc(F)c(F)c3)CC2)cc1 (stereo not drawn) | –
2 | 12 | 62 | – | – | CS(=O)(=O)Nc1ccc(OCC(O)CNCCNc2ccc(Cl)c(Cl)c2)cc1 (stereo not drawn) | –
3 | 296 | 1020 | – | – | CS(=O)(=O)Nc1ccc(OCC(O)CN2CCN(c3ccc(Cl)c(Cl)c3)CC2)cc1 (stereo not drawn) | –
4 | 32 | 270 | – | – | CS(=O)(=O)Nc1ccc(OCC(O)CN2CCN(c3ccc(Cl)cc3)CC2)cc1 (stereo not drawn) | –
5 | 213 | 1020 | – | – | CS(=O)(=O)Nc1ccc(OCC(O)CN2CCN(c3ccccc3)CC2)cc1 (stereo not drawn) | –
6 | 2400 | 28000 | – | – | CS(=O)(=O)Nc1ccc(OCC(O)CN2CCN(c3ccc(O)cc3)CC2)cc1 (stereo not drawn) | –
7 | 1810 | 12700 | – | – | CS(=O)(=O)Nc1ccc(OCC(O)CN2CCN(c3ccccn3)CC2)cc1 (stereo not drawn) | –
8 | > 30000 | > 30000 | – | – | CS(=O)(=O)Nc1ccc(OCC(O)CN2CCN(c3ccncc3)CC2)cc1 (stereo not drawn) | –
9 | 55 | 133 | – | – | CS(=O)(=O)Nc1ccc(OCC(O)CNCCNc2ccccc2)cc1 (stereo not drawn) | –
10 | 108 | 199 | – | – | CS(=O)(=O)Nc1ccc(OCC(O)CNCCNc2ccc(F)c(F)c2)cc1 (stereo not drawn) | –
11 | 7 | 38 | – | – | CS(=O)(=O)Nc1ccc(OCC(O)CNC/C=C/c2ccc(Cl)c(Cl)c2)cc1 (stereo not drawn) | –
12 | 163 | 2580 | – | – | CCCCN(C/C=C/c1ccc(Cl)c(Cl)c1)CC(O)COc1ccc(NS(C)(=O)=O)cc1 (stereo not drawn) | –
13 | 38 | 71 | – | – | CS(=O)(=O)Nc1ccc(OCC(O)CNC/C=C/c2ccc(F)c(F)c2)cc1 (stereo not drawn) | –
14 | – | – | – | – | O=c1[nH]c2ccc(OCC(O)CN3CCN(c4ccc(Cl)cc4)CC3)cc2o1 (stereo not drawn) | IC50 [3]: 79 nM; IC50 [4]: 726 nM
15 | – | – | – | – | O=c1[nH]c2ccc(OC[C@H](O)CN3CCN(c4ccc(F)c(F)c4)CC3)cc2o1 | IC50 [3]: 145 nM; IC50 [4]: 1700 nM
16 | – | – | – | – | O=c1[nH]c2ccc(OC[C@H](O)CN3CCN(c4ccc(Cl)c(Cl)c4)CC3)cc2o1 | IC50 [3]: 185 nM; IC50 [4]: 1500 nM
17 | – | – | – | – | Cc1ccc(N2CCN(C[C@@H](O)COc3ccc4[nH]c(=O)oc4c3)CC2)cc1 | IC50 [3]: 72 nM; IC50 [4]: 644 nM
18 | – | – | – | – | O=c1[nH]c2ccc(OCC(O)CNCCc3ccc(Cl)c(Cl)c3)cc2o1 (stereo not drawn) | IC50 [3]: 185 nM; IC50 [4]: 446 nM
19 | – | – | – | – | O=c1[nH]c2ccc(OCC(O)CNCCNc3ccc(Cl)cc3)cc2o1 (stereo not drawn) | IC50 [3]: 25 nM; IC50 [4]: 97 nM
20 | – | – | 80 | 814 | Oc1ccc(OC[C@H](O)CN2CCN(c3ccc(Cl)cc3)CC2)cc1 | –
21 | – | – | 131 | 611 | Oc1ccc(OC[C@H](O)CN2CCN(c3ccc(Cl)c(Cl)c3)CC2)cc1 | –
22 | – | – | 87 | 980 | Oc1ccc(OCC(O)CN2CCN(c3ccc(F)c(F)c3)CC2)cc1 (stereo not drawn) | –
23 | – | – | 50 | 272 | Oc1ccc(OC[C@H](O)CN2CCN(c3ccc(F)c(F)c3)CC2)cc1 | –
24 | – | – | 87 | 529 | Oc1ccc(OC[C@H](O)CN2CCN(c3ccc(F)cc3)CC2)cc1 | –
25 | – | – | 1500 | 5790 | Cc1ccc(N2CCN(CC(O)COc3ccc(O)cc3)CC2)cc1C (stereo not drawn) | –
26 | – | – | 70 | 260 | Cc1ccc(N2CCN(CC(O)COc3ccc(O)cc3)CC2)cc1 (stereo not drawn) | –
27 | – | – | 460 | 4370 | N#Cc1ccc(N2CCN(C[C@@H](O)COc3ccc(O)cc3)CC2)cc1 | –
28 | – | – | 73 | 204 | Oc1ccc(OCC(O)CN2CCN(c3ccc(Br)cc3)CC2)cc1 (stereo not drawn) | –
29 | – | – | 576 | 4700 | Oc1ccc(OCC(O)CN2CCN(c3ccc(O)cc3)CC2)cc1 (stereo not drawn) | –
30 | – | – | 562 | 9740 | COc1ccc(N2CCN(C[C@@H](O)COc3ccc(O)cc3)CC2)cc1 | –
